These results are taken from PubChem BioAssay (NCI).

Where “and” joins values, the source holds several entries; their conditions need not be identical. Equal values may be shown once.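 Cells were grown in 96-well plates and exposed to each compound for 48 hours at five concentrations; endpoints were interpolated linearly between bracketing concentrations, or set to the highest concentration if not reached. Here, GI50 denotes the concentration required for 50% inhibition of growth. TGI denotes the concentration required for complete inhibition of growth.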

Some test systems named below: CCRF-CEM leukemia; HOP-92 NSCLC; MALME-3M melanoma; NCI-H23 lung; OVCAR-4 ovarian; SN12C renal; SR leukemia; TK-10 renal; UACC-257 melanoma; UACC-62 melanoma.
Common to all, as to assay: inhibition of tumour cell growth, NCI panel, 48 h

As to `Cn1cc(-c2nc(-c3c[nH]c4ccccc34)cs2)c2cccnc21`, the GI50 was 0.353 µM in the test with CCRF-CEM leukemia; 0.295 µM in the test on HOP-92 NSCLC; 0.745 µM in the test on MALME-3M melanoma; 1.04 µM in the test with NCI-H23 lung; 0.756 µM in the test on OVCAR-4 ovarian; 2.09 µM in the test with SN12C renal. Also, the GI50 is 0.167 µM in the test with SR leukemia, 1.46 µM in the test on TK-10 renal, 14.2 µM with UACC-257 melanoma and 0.388 µM in the test with UACC-62 melanoma. In addition, the TGI with CCRF-CEM leukemia is more than 100 µM; in the test on HOP-92 NSCLC it was 17.2 µM; in the test with MALME-3M melanoma, 86.6 µM; with NCI-H23 lung, more than 100 µM; in the test with OVCAR-4 ovarian it was more than 60.4 µM; with SN12C renal it was more than 100 µM. Further, the TGI with SR leukemia was more than 79.4 µM; in the test on TK-10 renal it was 65.1 µM; in the test with UACC-257 melanoma, more than 100 µM; in the test with UACC-62 melanoma, more than 72.9 µM.
In the case of `CN1C(=O)CC(CC(=O)C2CCCCC2=O)CC1=O` (configuration not stated), the TGI in the test on CCRF-CEM leukemia, in the test on HOP-92 NSCLC, with MALME-3M melanoma, in the test with NCI-H23 lung, with OVCAR-4 ovarian and with SN12C renal was more than 100 µM in each case. Further, the TGI with SR leukemia, with TK-10 renal, in the test with UACC-257 melanoma and in the test with UACC-62 melanoma was more than 100 µM each time.
Consider `NC(=O)C1CCCN1Cc1ccc2c(c1)OCO2` (configuration not stated), for which the TGI in the test with CCRF-CEM leukemia, with HOP-92 NSCLC, in the test with MALME-3M melanoma, in the test on NCI-H23 lung, in the test with OVCAR-4 ovarian and with SN12C renal was more than 100 µM each time. Further, the TGI with SR leukemia, in the test with TK-10 renal, with UACC-257 melanoma and in the test on UACC-62 melanoma was more than 100 µM each time.
For the compound `CCn1c(C)nc([N+](=O)[O-])c1Sc1ncc[nH]1`, the TGI is 58.7 µM in the test on CCRF-CEM leukemia; more than 100 µM in the test with HOP-92 NSCLC; 93.8 µM in the test on MALME-3M melanoma; 99.6 µM in the test with NCI-H23 lung; more than 100 µM in the test on OVCAR-4 ovarian; more than 100 µM in the test with SN12C renal. For the same compound, the TGI in the test with SR leukemia, in the test on TK-10 renal, in the test on UACC-257 melanoma and in the test on UACC-62 melanoma was more than 100 µM throughout.
Regarding `O=C1/C(=C/c2ccc(C(=O)O)cc2)CNC/C1=C\c1ccc(C(=O)O)cc1`, the TGI with CCRF-CEM leukemia, with HOP-92 NSCLC, in the test on MALME-3M melanoma, in the test on NCI-H23 lung, with OVCAR-4 ovarian and in the test on SN12C renal was more than 100 µM in each case. For the same compound, the TGI in the test with SR leukemia, in the test with TK-10 renal, in the test on UACC-257 melanoma and in the test on UACC-62 melanoma was more than 100 µM throughout.
In the case of `C/C=C1/CN2CCC34c5ccccc5N5C(=O)C(C6CC78c9ccccc9N9C(=O)C=CC(C%10CC7N6C/C%10=C/C)C98)=CC(C1CC23)C54` (configuration not stated), the GI50 with CCRF-CEM leukemia is 1.6 µM; in the test with HOP-92 NSCLC it was 0.466 µM; with NCI-H23 lung it was 3.94 µM; in the test with SN12C renal it was 11.9 µM; in the test with TK-10 renal, 22 µM; in the test with UACC-257 melanoma, 2.93 µM. For the same compound, in the test with UACC-62 melanoma, the GI50 is 10.9 µM. For the same compound, the TGI in the test on CCRF-CEM leukemia was 2.05 µM and 4.39 µM; in the test on HOP-92 NSCLC it was 13.6 µM and 6.71 µM; with MALME-3M melanoma it was 14.5 µM; in the test with NCI-H23 lung it was 13.1 µM and 15.5 µM; in the test on OVCAR-4 ovarian it was 32.9 µM and 22.4 µM; in the test on SN12C renal, 14.5 µM and 26.8 µM. The TGI is 50 µM in the test on SR leukemia; 14.4 µM and 40.7 µM with TK-10 renal; 12.2 µM and 9.24 µM in the test on UACC-257 melanoma; 14.4 µM and 23.6 µM in the test with UACC-62 melanoma.
